# Source: patent US20040033941A1, “Immunosuppression using piceatannol and a calcineurin inhibitor” (priority 2003, published 2004)
# “Also recorded” adds a separate entry of the source.
# How the values were obtained:
# transplanted organ = assay: In vivo use of piceatannol alone as an immunosuppressive
# [1] = tested on: hearts from ACI rats transplanted into Lewis rats; assay: Heterotopic heart transplant, graft survival; assay type: in vivo, rat; conditions: at the specified dosages (30 mg/kg piceatannol, 2 mg/kg cyclosporin A)
# Method: (§1) In vivo studies were conducted using piceatannol obtained from Peninsula Lab. […] We examined the ability of piceatannol/calcineurin mixtures to prolong graft survival. Donor organs from ACI rats were transplanted into Lewis rats.
# Prior to transplantation, piceatannol (30 mg/kg) was administered intravenously for three days into one selection of Lewis rats via a catheter placed in the right jugular vein.
# At day 3, hearts from ACI rats were heterotopically transplanted into the abdomen of the Lewis rats. […] Following transplantation, fascia and muscle were closed with absorbable suture and skin was closed with nylon.
# After surgery animals were placed on a warm pad and observed until they awakened. The animals were then placed in cages in a warm environment with wood chip bedding, and provided rodent chow. To relieve pain, Buprenorphine was also given to the animal. Toxicity in animals was monitored by measuring the blood levels of creatinine and ALT, indicators of kidney and liver function, respectively. Drug administration then continued for an additional seven days after the transplant surgery (and was then discontinued).
# In the case of heart transplants, rejection was considered complete when no heart beat was palpable with respect to the transplanted organ. This was confirmed by laparotomy and direct inspection.
# Syk kinase = conditions: J. Oliver et al., J. Biol. Chem. 1994; mast cell/allergy studies; cited from earlier work
# [2] = tested on: kidneys from ACI rats transplanted into Lewis rats; assay type: in vivo
# Method: as §1
# In other experiments, kidneys from ACI rats were transplanted into Lewis rats. Drug administration continued for an additional seven days after transplant at the same levels. From day 8 through day 60 post-transplant administration continued, albeit with piceatannol reduced to 10 mg/kg/day. Thereafter, drug administration ceased.
# Animals were anesthetized. The lower abdomen of the donor was shaved and surgically prepared and a long midline incision was made in the abdominal wall. The left kidney and left ureter, aorta, and vena cava were dissected, and suprarenal and gonadal veins ligated and cut. After ligating the suprarenal aorta and vena cava, a hole made in distal aorta and left kidney was flushed in situ with 3 ml of heparinized cold Euro-Collins' solution. The left kidney and left ureter were removed with an aortic cuff and vena cava patched and kept on ice.
# After the lower abdomen of the recipient was shaved and surgically prepared, the recipient animal underwent a left nephrectomy via a long midline incision under inhalation anesthesia, and abdominal aoerta and vena cava were prepared for anastomosis. […]
# T and B cell activation = assay: T and B cell activation; assay type: cell-based; conditions: both in vitro and in vivo
compound,measurement,setting,value
"Oc1cc(O)cc(/C=C/c2ccc(O)c(O)c2)c1 [piceatannol, 3,4,3′,5′-tetrahydroxy-trans-stilbene]",tolerability / toxicity of piceatannol alone,transplanted organ; 75 mg/kg of body weight per day,not well tolerated; also recorded: some toxicity was noted
same,"transplanted organ survival, piceatannol alone",transplanted organ; in vivo use of piceatannol,prolongs transplanted organ survival
same,prolongation of heart graft survival (in words),[1],only minimal prolongation effect
same,inhibition of Syk kinase,Syk kinase,very effective inhibitor
same,prolonging kidney allograft survival (in words),"[2]; piceatannol 30 then 10 mg/kg/day IV, CsA 2 mg/kg/day IM, day -3 to +60, rejection = serum creatinine over 2 mg/dl or death",not effective
same,histological analysis of transplanted kidneys,"[2]; single-agent groups, data not shown",signs of acute rejection
same,T and B cell activation,T and B cell activation,inhibits
